One series addresses T1, UGT1A1 (Homo sapiens, UniProt P22309).
T1 sequence (P22309 26-533): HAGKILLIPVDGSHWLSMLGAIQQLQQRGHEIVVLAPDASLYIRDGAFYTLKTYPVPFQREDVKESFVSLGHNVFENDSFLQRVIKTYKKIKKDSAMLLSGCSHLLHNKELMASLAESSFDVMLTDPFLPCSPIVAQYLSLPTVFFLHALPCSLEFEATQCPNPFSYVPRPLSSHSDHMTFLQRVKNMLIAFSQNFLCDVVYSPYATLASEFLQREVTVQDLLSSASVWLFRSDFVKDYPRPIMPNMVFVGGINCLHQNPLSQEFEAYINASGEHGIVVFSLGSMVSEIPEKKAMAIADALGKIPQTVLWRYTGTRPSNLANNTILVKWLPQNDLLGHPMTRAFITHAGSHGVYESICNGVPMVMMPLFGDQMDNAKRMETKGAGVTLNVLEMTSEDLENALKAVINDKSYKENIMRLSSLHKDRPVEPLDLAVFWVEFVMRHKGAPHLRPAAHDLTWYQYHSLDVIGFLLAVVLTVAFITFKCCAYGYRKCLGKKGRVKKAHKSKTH
Briefly: ATV lactonization by recombinant UGT1A1 (LC-MS). In kind it is in vitro ADME. As to conditions: among various recombinant UGT enzymes; substrate 0.6 μM and 6 μM.

In the next series the target is T2, recombinant UGT1A3 (Homo sapiens, UniProt P35503).
T2 sequence (P35503 29-534): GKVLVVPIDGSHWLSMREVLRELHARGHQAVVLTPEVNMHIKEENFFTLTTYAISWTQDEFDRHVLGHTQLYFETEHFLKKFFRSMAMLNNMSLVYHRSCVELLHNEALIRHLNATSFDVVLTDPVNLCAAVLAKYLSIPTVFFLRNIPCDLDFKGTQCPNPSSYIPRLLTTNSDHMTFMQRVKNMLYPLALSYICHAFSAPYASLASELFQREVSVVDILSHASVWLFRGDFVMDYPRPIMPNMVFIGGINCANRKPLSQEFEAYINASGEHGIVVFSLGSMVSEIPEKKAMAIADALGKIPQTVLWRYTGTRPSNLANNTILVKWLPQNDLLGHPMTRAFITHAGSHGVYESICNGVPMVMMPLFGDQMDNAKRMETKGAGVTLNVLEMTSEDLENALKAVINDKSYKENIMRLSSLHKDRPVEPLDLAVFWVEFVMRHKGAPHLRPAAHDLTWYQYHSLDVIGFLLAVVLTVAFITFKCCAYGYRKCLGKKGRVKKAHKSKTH
As to conditions: among various recombinant UGT enzymes; substrate 0.6 μM and 6 μM.

The next series concerns UGT1A3. As to conditions: human liver microsomes, genotype-phenotype correlation. (Liver microsomes are vesicles of endoplasmic reticulum, rich in cytochrome P450 enzymes.)

The results in this text go back to patent US9528156B2, “Method for determining the predisposition of a patient to changed biotransformation and to the development of undesired drug effects in a treatment of the patient with atrovastatin” (Robert Bosch GmbH, priority 2009, dated 2016).

Experimental for UGT1A1: (§1) The reaction is started by addition of 10 mM UDP glucuronic acid, the cosubstrate of the UDP glucuronosyl transferases (UGT). The samples were incubated for 30 minutes. The reaction was stopped by addition of 25 μl of ice-cold 250 mM formic acid in acetonitrile and the vortexed samples were immediately placed on ice. […] The samples were centrifuged for 5 minutes at 13,000 rpm and placed in glass vessels for the LC/MS measurement.
(§2) The samples are separated on an XBridge Shield RP18 3.5 μm column with a C8 precolumn with a 1 mM formic acid and acetonitrile gradient for 23 minutes at 30° C. The masses are detected by HCT Esquire plus mass spectrometer, this being after electrospray ionization of the substances separated by the column.
Experimental for recombinant UGT1A3: as §1, §2

Turning to `CC(C)c1c(C(=O)Nc2ccccc2)c(-c2ccccc2)c(-c2ccc(F)cc2)n1CC[C@@H](O)C[C@@H](O)CC(=O)O` [atorvastatin], at UGT1A1, the “activity for the catalysis of the ATV lactonization” value was “only low activity”. Besides, the “specific activity for the catalysis of the ATV lactonization” value on recombinant UGT1A3 is recorded as “highest specific activity”. The “activity for ATV lactonization in homozygotic UGT1A3*2 carriers compared to wild type samples” value with UGT1A3 is listed as “increased twofold”.
